According to the NIST ThermoML archive (doi:10.1016/j.fluid.2011.06.011):

Assay: xn = mol fraction of the nth substance listed
Details: 328.15 K, Liquid; for speed of sound: Sing-around technique in a fixed-path interferometer; for mass density: Vibrating tube method

C=CC(C)(O)CCC=C(C)C (centres undefined) [3,7-dimethyl-1,6-octadien-3-ol] + CCO
Details | mass density [kg/m3] | speed of sound [m/s]
101 kPa, x1 = 0.0493 | – | 1070.8
101 kPa, x1 = 0.0506 | 770.91 | –
101 kPa, x1 = 0.1008 | 780.72 | 1095.1
101 kPa, x1 = 0.1969 | 795.22 | 1125
101 kPa, x1 = 0.2884 | 805.21 | –
101 kPa, x1 = 0.2959 | – | 1147.3
101 kPa, x1 = 0.3957 | 813.44 | 1163.9
101 kPa, x1 = 0.4803 | 818.17 | –
101 kPa, x1 = 0.4834 | – | 1173.9
101 kPa, x1 = 0.593 | 822.82 | 1185.1
101 kPa, x1 = 0.6838 | 825.57 | 1193.8
101 kPa, x1 = 0.7832 | – | 1199
101 kPa, x1 = 0.8438 | 828.96 | –
101 kPa, x1 = 0.8633 | – | 1203.2
101 kPa, x1 = 0.8941 | 829.77 | –
101 kPa, x1 = 0.9286 | 830.31 | 1206.3
101 kPa, x1 = 1 | 831.31 | 1207.6
20000 kPa, x1 = 0.0511 | 789.2 | –
20000 kPa, x1 = 0.1003 | 798.3 | –
20000 kPa, x1 = 0.1962 | 811.4 | –
20000 kPa, x1 = 0.2989 | 821.4 | –
20000 kPa, x1 = 0.3996 | 828.3 | –
20000 kPa, x1 = 0.5015 | 833.5 | –
20000 kPa, x1 = 0.5982 | 837.1 | –
20000 kPa, x1 = 0.6898 | 839.9 | –
20000 kPa, x1 = 0.7929 | 842.5 | –
20000 kPa, x1 = 0.8885 | 844.4 | –
20000 kPa, x1 = 0.9435 | 845.3 | –
20000 kPa, x1 = 1 | 846 | –
25000 kPa, x1 = 0.0511 | 793.4 | –
25000 kPa, x1 = 0.1003 | 802.2 | –
25000 kPa, x1 = 0.1962 | 815.2 | –
25000 kPa, x1 = 0.2989 | 825.1 | –
25000 kPa, x1 = 0.3996 | 831.9 | –
25000 kPa, x1 = 0.5015 | 837 | –
25000 kPa, x1 = 0.5982 | 840.6 | –
25000 kPa, x1 = 0.6898 | 843.4 | –
25000 kPa, x1 = 0.7929 | 845.9 | –
25000 kPa, x1 = 0.8885 | 847.8 | –
25000 kPa, x1 = 0.9435 | 848.6 | –
25000 kPa, x1 = 1 | 849.3 | –
30000 kPa, x1 = 0.0511 | 797.1 | –
30000 kPa, x1 = 0.1003 | 806 | –
30000 kPa, x1 = 0.1962 | 818.8 | –
30000 kPa, x1 = 0.2989 | 828.6 | –
30000 kPa, x1 = 0.3996 | 835.3 | –
30000 kPa, x1 = 0.5015 | 840.4 | –
30000 kPa, x1 = 0.5982 | 843.9 | –
30000 kPa, x1 = 0.6898 | 846.7 | –
30000 kPa, x1 = 0.7929 | 849.2 | –
30000 kPa, x1 = 0.8885 | 851 | –
30000 kPa, x1 = 0.9435 | 851.9 | –
30000 kPa, x1 = 1 | 852.6 | –
35000 kPa, x1 = 0.0511 | 800.7 | –
35000 kPa, x1 = 0.1003 | 809.6 | –
35000 kPa, x1 = 0.1962 | 822.3 | –
35000 kPa, x1 = 0.2989 | 832 | –
35000 kPa, x1 = 0.3996 | 838.6 | –
35000 kPa, x1 = 0.5015 | 843.6 | –
35000 kPa, x1 = 0.5982 | 847.2 | –
35000 kPa, x1 = 0.6898 | 849.9 | –
35000 kPa, x1 = 0.7929 | 852.3 | –
35000 kPa, x1 = 0.8885 | 854.2 | –
35000 kPa, x1 = 0.9435 | 855 | –
35000 kPa, x1 = 1 | 855.7 | –
40000 kPa, x1 = 0.0511 | 804.6 | –
40000 kPa, x1 = 0.1003 | 813.1 | –
40000 kPa, x1 = 0.1962 | 825.6 | –
40000 kPa, x1 = 0.2989 | 835.2 | –
40000 kPa, x1 = 0.3996 | 841.8 | –
40000 kPa, x1 = 0.5015 | 846.7 | –
40000 kPa, x1 = 0.5982 | 850.3 | –
40000 kPa, x1 = 0.6898 | 853 | –
40000 kPa, x1 = 0.7929 | 855.4 | –
40000 kPa, x1 = 0.8885 | 857.2 | –
40000 kPa, x1 = 0.9435 | 858.1 | –
40000 kPa, x1 = 1 | 858.8 | –
